Laboratory results: US7332476B2, “Pyridyl substituted ketolide antibiotics” (Novartis AG, priority 2003, dated 2008)
≈ marks a conversion by molar mass, not a printed value.

How the values were obtained:
Experiment in all cases: MIC, broth microdilution (NCCLS)
[1] = test system: Streptococcus pneumoniae Stpn_Mef 5654; format: cell-based; conditions: Table 5, Strain ID J (Table 4): S. pneumoniae Stpn_Mef 5654; in µg/mL (unit assumed)
Procedure, shortened: (§1)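 Broth microdilution per NCCLS in cation-adjusted Mueller-Hinton broth, with 2-5% lysed horse blood added for S. pneumoniae. Inoculum 3×10^5–7×10^5 CFU/ml, 2-fold drug dilutions, 18-24 h at 35° C; S. pneumoniae under 5-10% CO2, others ambient air. MIC = lowest concentration preventing visible growth.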

[2] = test system: Streptococcus pneumoniae Stpn_Mef S 3427; format: cell-based; conditions: Table 5, Strain ID K (Table 4): S. pneumoniae Stpn_Mef S 3427
Procedure, shortened: as §1

[3] = test system: Staphylococcus epidermidis Step_14990; format: cell-based; conditions: in µg/mL (unit assumed); for MIC: Table 5, Strain ID A (Table 4): S. epidermidis Step_14990; for MIC, strain ID C: broth microdilution
Procedure, shortened: as §1

[4] = test system: Enterococcus faecalis Enfa_29212; format: cell-based; conditions: for MIC: Table 5, Strain ID C (Table 4): E. faecalis Enfa_29212; for MIC, strain ID E: broth microdilution
Procedure, shortened: as §1

[5] = test system: Haemophilus influenzae Hain_49247; format: cell-based; conditions: unit assumed; for MIC: Table 5, Strain ID L (Table 4): H. influenzae Hain_49247; for MIC, strain ID H: broth microdilution
[6] = test system: Streptococcus pneumoniae Stpn_Erm S 4297; format: cell-based; conditions: for MIC: Table 5, Strain ID I (Table 4): S. pneumoniae Stpn_Erm S 4297; for MIC, strain ID Q: broth microdilution
Procedure, shortened: as §1

[7] = test system: Staphylococcus epidermidis Step_f50654; format: cell-based; conditions: in µg/mL (unit assumed); for MIC: Table 5, Strain ID B (Table 4): S. epidermidis Step_f50654 Pen S; for MIC, strain ID D: broth microdilution
Procedure, shortened: as §1

E. coli Esco_25922 = format: cell-based; conditions: Table 5, Strain ID M (Table 4): E. coli Esco_25922; unit assumed
Description: Strains. The bacterial isolates listed in Table 4 were cultivated from −70° C. frozen stocks by two consecutive overnight passages (P1, P2) at 35° C. on 5% blood agar (Remel, Lenexa, Kans.). Chocolate agar (Remel) is used for Haemophilus influenzae. H. influenzae and Streptococcus pneumoniae are incubated in 5-10% CO2
Drug Stock Preparation. To determine the amount of solvent to be used to give the desired final concentration, the formula “weight obtained in mg/final concentration in mg/ml” will be used. It will give the amount of solvent in ml needed to be added to give the desired concentration. For example, if 2.5 mg/ml is the desired concentration and the weight of compound is 13.7 mg, then the amount of solvent to be added is […]. Methanol is used as the solvent to dissolve the test compounds. Further dilution of stock is done in sterile, deionized water. Drug stocks are kept frozen at −70° C., protected from light.
Susceptibility Testing. MICs are determined by the broth microdilution method in accordance with the NCCLS guidelines. In brief, organism suspensions are adjusted to a 0.5 McFarland standard to yield a final inoculum between 3×10^5 and 7×10^5 CFU/ml. Drug dilutions and inocula are made in sterile, cation adjusted Mueller-Hinton Broth (CAMHB) (Remel) for all but S. pneumoniae [CAMHB with 2-5% lysed horse blood (Remel)] and H. influenzae [Haemophilus Test Medium (Remel)]. An inoculum volume of 100 μl is added to wells containing 100 μl of broth with 2-fold serial dilutions of drug. All inoculated microdilution trays are incubated in ambient air at 35° C. for 18-24 hours, except for S. pneumoniae, and H. influenzae (both at 5-10% CO2).
Following appropriate incubation, the MIC is determined and the MIC is defined as the lowest concentration of the drug that prevented visible growth.

[8] = test system: Streptococcus pneumoniae Stpn_297-749; format: cell-based; set-up: MIC, strain ID N: unit not given here; conditions: for MIC: Table 5, Strain ID F (Table 4): S. pneumoniae Stpn_297-749 Pen R; for MIC, strain ID N: broth microdilution
Procedure, shortened: as §1

[9] = test system: S. pneumoniae Stpn_Erm 6849; format: cell-based, Streptococcus pneumoniae; conditions: for MIC: Table 5, Strain ID H (Table 4): S. pneumoniae Stpn_Erm 6849, unit assumed; for MIC, strain ID P: broth microdilution, in µg/mL (unit assumed)
Procedure, shortened: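 Lowest drug concentration giving no visible growth after 18-24 hours at 35° C. under 5-10% CO2 was taken as MIC. Twofold serial dilutions in CAMHB plus 2-5% lysed horse blood, final inoculum 3×10^5–7×10^5 CFU/ml, per NCCLS microdilution.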

[10] = test system: Streptococcus pyogenes Stpy_8668; format: cell-based; set-up: MIC, strain ID G: unit not given beside the values; conditions: for MIC: Table 5, Strain ID D (Table 4): S. pyogenes Stpy_8668; for MIC, strain ID G: broth microdilution
Procedure, shortened: as §1

[11] = test system: Streptococcus pneumoniae Stpn_280-962; format: cell-based; set-up: MIC, strain ID O: unit not given beside the values; conditions: for MIC: Table 5, Strain ID G (Table 4): S. pneumoniae Stpn_280-962 Pen S; for MIC, strain ID O: broth microdilution
Procedure, shortened: as §1

[12] = test system: Streptococcus pneumoniae Stpn_49619; format: cell-based; set-up: MIC, strain ID M: unit not given beside the values; conditions: for MIC: Table 5, Strain ID E (Table 4): S. pneumoniae Stpn_49619; for MIC, strain ID M: broth microdilution
Procedure, shortened: as §1

[13] = test system: Staphylococcus aureus Stau_29213; format: cell-based; conditions: strain ID A; broth microdilution; in µg/mL (unit assumed)
Procedure, shortened: as §1

[14] = test system: Haemophilus influenzae Hain_953460299-3; format: cell-based; conditions: strain ID K; broth microdilution; in µg/mL (unit assumed)
Procedure, shortened: (§2)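 Compounds dissolved in methanol, diluted in water, then 2-fold serially diluted in CAMHB (H. influenzae: Haemophilus Test Medium). Inoculated at 3×10^5–7×10^5 CFU/ml from 0.5 McFarland suspension, incubated 35° C for 18-24 h, and scored for visible growth.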

[15] = test system: Haemophilus influenzae Hain_960730503-3; format: cell-based; conditions: strain ID I; broth microdilution; in µg/mL (unit assumed)
Procedure, shortened: as §2

[16] = test system: Haemophilus influenzae Hain_960820544-3; format: cell-based; conditions: strain ID J; broth microdilution; in µg/mL (unit assumed)
Procedure, shortened: as §2

[17] = test system: Staphylococcus aureus Stau_33591; format: cell-based; conditions: strain ID B; broth microdilution; unit assumed
Procedure, shortened: as §2

[18] = test system: Haemophilus influenzae Hain_2762; format: cell-based; conditions: strain ID L; broth microdilution; in µg/mL (unit assumed)
Procedure, shortened: as §2

[19] = test system: Enterococcus faecalis Enfa_bc 11148-2; format: cell-based; conditions: strain ID F; broth microdilution; in µg/mL (unit assumed)
Procedure, shortened: as §2

| SMILES | MIC [1] | MIC [2] | MIC [7] | MIC (E. coli Esco_25922) [µg/mL] | MIC [8] | MIC, strain ID C [3] | MIC, strain ID A [13] | MIC, strain ID H [5] [µg/mL] | MIC, strain ID D [7] | MIC, strain ID K [14] | MIC, strain ID I [15] | MIC, strain ID J [16] | MIC, strain ID B [17] [µg/mL] | MIC, strain ID L [18] | MIC, strain ID F [19] | MIC, strain ID N [8] | MIC, strain ID P [9] | MIC, strain ID G [10] | MIC, strain ID O [11] | MIC, strain ID M [12] | further results |
| --- | --- | --- | --- | --- | --- | --- | --- | --- | --- | --- | --- | --- | --- | --- | --- | --- | --- | --- | --- | --- | --- |
| CC[C@H]1OC(=O)[C@H](C)C(=O)[C@H](C)[C@@H](OC2O[C@H](C)C[C@H](N(C)C)[C@H]2O)[C@@](C)(OC)C[C@@H](C)C(=O)[C@H](C)[C@@H]2[C@@H]1OC(=O)N2CCCCn1cnc(-c2ccccc2)c1 (stereo partly shown) [Compound 6221] | 0.4 | =0.05 | 0.1 | 25 (≈ 31.4 µM) | =0.05 | – | – | – | – | – | – | – | – | – | – | – | – | – | – | – | MIC [3]: 0.1; MIC [4]: =0.05; MIC [5]: 3.13 µg/mL (≈ 3.93 µM); MIC [6]: =0.05; MIC [9]: 0.1 µg/mL (≈ 0.125 µM); MIC [10]: =0.05; MIC [11]: =0.05; MIC [12]: =0.05 |
| CC[C@H]1OC(=O)[C@H](C)C(=O)[C@H](C)[C@@H](OC2O[C@H](C)C[C@H](N(C)C)[C@H]2O)[C@@](C)(OC)C[C@@H](C)C(=O)[C@H](C)[C@@H]2[C@@H]1OC(=O)N2CCCCc1ccnc2ccccc12 (stereo partly shown) [Compound 6220] | 0.4 | =0.5 | 0.1 | 6.25 (≈ 7.99 µM) | =0.05 | – | – | – | – | – | – | – | – | – | – | – | – | – | – | – | MIC [3]: 0.1; MIC [4]: =0.05; MIC [5]: 1.56 µg/mL (≈ 1.99 µM); MIC ([6]; unit assumed): 0.1 µg/mL (≈ 0.128 µM); MIC [9]: 3.13 µg/mL (≈ 4 µM); MIC [10]: =0.05; MIC [11]: =0.05; MIC [12]: =0.05 |
| CC[C@H]1OC(=O)[C@H](C)C(=O)[C@H](C)[C@@H](OC2O[C@H](C)C[C@H](N(C)C)[C@H]2O)[C@@](C)(OC)C[C@@H](C)C(=O)[C@H](C)[C@H]2N(CCCCc3ccnc4ccccc34)C(=O)O[C@]12CC (stereo partly shown) [Compound 7283] | 0.4 | =0.05 | 0.2 | 12.5 (≈ 15.4 µM) | =0.05 | – | – | – | – | – | – | – | – | – | – | – | – | – | – | – | MIC [9]: 0.4 µg/mL (≈ 0.494 µM); MIC [10]: =0.05; MIC [11]: =0.05; MIC [12]: =0.05 |
| C=C[C@]12OC(=O)N(CCCCn3cnc(-c4cnc(Cl)c(C)c4)c3)[C@@H]1[C@@H](C)C(=O)[C@H](C)C[C@](C)(OC)[C@H](OC1O[C@H](C)C[C@H](N(C)C)[C@H]1O)[C@@H](C)C(=O)[C@@H](C)C(=O)O[C@@H]2CC (stereo partly shown) [XXXVIII] | – | – | – | – | – | 0.1 | 0.1 | 3.13 (≈ 3.59 µM) | 0.4 | 12.5 | 6.25 | 12.5 | > 50 | 1.56 | 3.13 | =0.05 | 0.2 | =0.05 | =0.05 | =0.05 | MIC, strain ID E ([4]; in µg/mL (unit assumed)): 0.1; MIC, strain ID Q ([6]; in µg/mL (unit assumed)): 0.2 |
| CC[C@H]1OC(=O)[C@H](C)C(=O)[C@H](C)[C@@H](OC2O[C@H](C)C[C@H](N(C)C)[C@H]2O)[C@@](C)(OC)C[C@@H](C)C(=O)[C@H](C)[C@@H]2[C@@H]1OC(=O)N2CCCCn1cnc(-c2ccc(Cl)nc2)c1 (stereo partly shown) [XXVIII] | – | – | – | – | – | 0.1 | 0.2 | 6.25 (≈ 7.51 µM) | 0.2 | 12.5 | 6.25 | 6.25 | > 50 | 1.56 | 0.4 | =0.05 | 0.78 | =0.05 | =0.05 | =0.05 | MIC, strain ID E [4]: =0.05; MIC, strain ID Q ([6]; in µg/mL (unit assumed)): 0.1 |
| C#C[C@]12OC(=O)N(CCCCn3cnc(-c4ccc(Cl)nc4)c3)[C@@H]1[C@@H](C)C(=O)[C@H](C)C[C@](C)(OC)[C@H](OC1O[C@H](C)C[C@H](N(C)C)[C@H]1O)[C@@H](C)C(=O)[C@@H](C)C(=O)O[C@@H]2CC (stereo partly shown) [XXXIV] | – | – | – | – | – | 0.1 | 0.1 | 3.13 (≈ 3.65 µM) | 0.1 | 6.25 | 6.25 | 6.25 | > 50 | 0.78 | 0.4 | =0.05 | 0.4 | =0.05 | =0.05 | =0.05 | MIC, strain ID E [4]: =0.05; MIC, strain ID Q ([6]; in µg/mL (unit assumed)): 0.1 |
| C=C[C@]12OC(=O)N(CCCCn3cc(-c4ccc(Cl)nc4)nc3C)[C@@H]1[C@@H](C)C(=O)[C@H](C)C[C@](C)(OC)[C@H](OC1O[C@H](C)C[C@H](N(C)C)[C@H]1O)[C@@H](C)C(=O)[C@@H](C)C(=O)O[C@@H]2CC (stereo partly shown) [XXIX] | – | – | – | – | – | 0.1 | 0.2 | 6.25 (≈ 7.16 µM) | 0.2 | 12.5 | 6.25 | 6.25 | > 50 | 1.56 | 3.13 | =0.05 | 0.78 | =0.05 | =0.05 | =0.05 | MIC, strain ID E ([4]; in µg/mL (unit assumed)): 0.1; MIC, strain ID Q [6]: =0.05 |
